Reference: patent US20220378923A1, “BET DEGRADER” (KYOWA KIRIN CO., LTD., priority 2019, published 2022)

Molecular target: T1, interaction between BRD2 and E3 ligase DCAF16 (Homo sapiens, UniProt P25440)
T1 construct: expressed in transfected cells; host or cells: HEK293
Experiment: Verification of BET-DCAF16 interaction, NanoBRET in HEK293 cells (Test Example 7)
Assay type: cell-based
Details: test compound 10 μmol/L, 2 hours; HEK293 cells expressing Nluc-BRD2 and DCAF16-HaloTag; bortezomib; average of n=3
Description: HEK293 cells (ATCC® CRL-1573™) were cultured using a carbon dioxide gas incubator (95% air, 5% CO2) at 37° C. in DMEM, High Glucose, Pyruvate (DMEM: Code No. 11995073, Thermo Fisher Scientific) in which inactivated fetal bovine serum (FBS: Code No. 10099-148 (Thermo Fisher Scientific) was added in an amount to give a final concentration of 10 vol %. A Falcon® 100 mm×20 mm cell culture dish (Code No. 353003, CORNING) was used for cell culture.
A sequence encoding BRD2 was cleaved from pFN21AB3863 (Code No. FHC01342, Kazusa Genome Technologies) using Flexi Enzyme Blend (SgfI and PmeI) (Code No. R1852, Promega) and recombined with pFN31A Nluc CMV-Hygro Flexi® Vector (Code No. N131A, Promega) similarly cleaved using Flexi Enzyme Blend (SgfI and PmeI) to prepare a plasmid pFN31A_BRD2 expressing BRD2 with an Nluc tag added to the N-terminal. A sequence encoding DCAF16 having sgfI and pmeI restriction enzyme sites at both ends was amplified and purified by polymerase chain reaction using two primers, […] (SEQ ID NO: 4) and […] (SEQ ID NO: 5) from cDNA derived from HEK293 cells. Cleavage was performed using Flexi Enzyme Blend (SgfI and PmeI), and pFC27K HaloTag® CMV-neo Flexi® Vector (Code No. G8431, Promega) cleaved using Carboxy Flexi Enzyme Blend (Sgf I and EcoICR I) (Code No. R1901, Promega) was recombined to prepare a plasmid pFC27K_DCAF16 expressing DCAF16 with HaloTag added to the C-terminal. Sequencing was performed and confirmed that the sequence encoding DCAF16 matched NM_001345880.
Cultured HEK293 cells were washed with DPBS, no calcium, no magnesium (DPBS: Code No. 14190144, Thermo Fisher Scientific) and harvested using TrypLE™ Express Enzyme (1×), phenol red (TrypLE: Code No. 12605036, Thermo Fisher Scientific), and prepared to be 4.0×10^5 cells/mL in DMEM. A volume of 12 mL of the cell suspension was seeded in a Falcon® 100 mm×20 mm cell culture dish and cultured in a carbon dioxide gas incubator at 37° C. for 6 hours. For one dish, 12 μg of pFC27K_DCAF16, 0.12 μg of p FN31A_BRD2, 48 μL of FuGENE® HD Transfection Reagent (Code No. E2312, Promega) were added to 600 μL of Opti-MEM™ I Reduced Serum Medium, no phenol red (Opti-MEM: Code No. 11058021, Thermo Fisher Scientific) and mixed. The mixture was allowed to stand for 15 minutes and added to HEK293 cells. After 20 hours, the cells were washed with DPBS, no calcium, no magnesium, harvested from the dish using TrypLE, and then neutralized in DMEM. After centrifugation, the supernatant was discarded, and the cells were prepared to be 2.2×10^5 cells/mL using Opti-MEM containing 4% FBS. HaloTag® NanoBRET™ 618 Ligand contained in NanoBRET™ Nano-Glo® Detection System (Code No. N1662, Promega) and bortezomib as a proteasome inhibitor were added to be a 1000-fold dilution. In addition, a group was prepared to which DMSO was added instead of HaloTag® NanoBRET™ 618 Ligand. 90 μL of the cell suspension was seeded in CulturPlate-96 (Code No. 6005688, PerkinElmer), and allowed to stand in a carbon dioxide gas incubator at 37° C. for 30 minutes. A volume of 10 mmol/L of a solution of the test compound in DMSO was adjusted to be 100 μmol/L with Opti-MEM, 10 μL of the solution was added to each well, and then the mixture was allowed to stand in a carbon dioxide gas incubator at 37° C. for 2 hours. At this time, all the groups were prepared so that the final concentration of DMSO was 0.1 vol % including the group to which the test compound was not added. NanoBRET™ Nano-Glo® Substrate included in the NanoBRET™ Nano-Glo® Detection System was diluted 100-fold with Opti-MEM. After adding 25 μL of the dilution each and stirring for 30 seconds, measurement was performed with an Emission Filter of 460 nm and 620 nm using EnVision (PerkinElmer). The BRET ratio of 10 μmol/L for each test compound was calculated using the following formula. The experiment was performed by n=3 and the average value was calculated. […]

T1 sequence (P25440 whole entry): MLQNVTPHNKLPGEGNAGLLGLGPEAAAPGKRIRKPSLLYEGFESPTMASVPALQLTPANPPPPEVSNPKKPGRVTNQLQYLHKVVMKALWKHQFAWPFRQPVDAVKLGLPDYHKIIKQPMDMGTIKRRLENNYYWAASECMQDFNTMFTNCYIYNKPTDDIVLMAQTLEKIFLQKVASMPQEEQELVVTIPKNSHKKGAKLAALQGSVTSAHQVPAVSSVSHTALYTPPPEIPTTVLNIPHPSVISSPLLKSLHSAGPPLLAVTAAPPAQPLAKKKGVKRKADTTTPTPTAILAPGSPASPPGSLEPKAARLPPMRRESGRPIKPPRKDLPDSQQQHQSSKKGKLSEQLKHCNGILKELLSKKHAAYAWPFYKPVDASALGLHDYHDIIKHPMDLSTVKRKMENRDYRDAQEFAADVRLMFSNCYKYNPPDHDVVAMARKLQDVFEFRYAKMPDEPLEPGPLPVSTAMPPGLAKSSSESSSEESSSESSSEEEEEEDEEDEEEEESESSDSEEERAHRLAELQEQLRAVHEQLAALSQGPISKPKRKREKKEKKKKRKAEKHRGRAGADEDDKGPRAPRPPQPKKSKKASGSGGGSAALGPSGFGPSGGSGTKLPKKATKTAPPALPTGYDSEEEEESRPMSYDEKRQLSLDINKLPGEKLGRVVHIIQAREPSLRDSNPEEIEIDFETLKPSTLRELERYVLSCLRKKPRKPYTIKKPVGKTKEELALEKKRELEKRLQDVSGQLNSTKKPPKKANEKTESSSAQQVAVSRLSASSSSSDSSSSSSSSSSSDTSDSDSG
T1 sequence (Q9NXF7 whole entry partner): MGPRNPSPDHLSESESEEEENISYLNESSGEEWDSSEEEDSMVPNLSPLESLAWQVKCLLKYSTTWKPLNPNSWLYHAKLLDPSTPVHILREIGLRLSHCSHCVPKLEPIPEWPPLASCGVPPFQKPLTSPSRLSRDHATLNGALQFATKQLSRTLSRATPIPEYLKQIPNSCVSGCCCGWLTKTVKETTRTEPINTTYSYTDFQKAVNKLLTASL

SMILES	BRET Ratio
CCC(=O)N1c2ccccc2[C@H](Nc2ccc(C(=O)NCCCNC(=O)c3ccc(C4=N[C@@H](CC(=O)OC(C)(C)C)c5nnc(C)n5-c5sc(C)c(C)c54)cc3)cc2)C[C@@H]1C [Compound 1h, tert-Butyl 2-[(S)-2,3,9-trimethyl-4-(4-{[3-(4-{[(2S,4R)-2-methyl-1-propionyl-1,2,3,4-tetrahydroquinolin-4-yl]amino}benzamide)propyl]carbamoyl}phenyl)-6H-thieno[3,2-f][1,2,4]triazolo[4,3-a][1,4]diazepin-6-yl]acetate]	6.84
CCC(=O)N1c2ccccc2[C@H](Nc2ccc(C(=O)NCC(=O)CNC(=O)c3ccc(N[C@@H]4C[C@H](C)N(C(=O)CC)c5ccccc54)cc3)cc2)C[C@@H]1C [Compound 1l, N,N′-(2-Oxopropane-1,3-diyl)bis(4-{[(2S,4R)-2-methyl-1-propionyl-1,2,3,4-tetrahydroquinolin-4-yl]amino}benzamide)]	8.03
CCC(=O)N1c2ccccc2[C@H](Nc2ccc(C(=O)NCc3cn(-c4ccc(N[C@@H]5C[C@H](C)N(C(=O)CC)c6ccccc65)cc4)nn3)cc2)C[C@@H]1C [Compound 3a, 4-{[(2S,4R)-2-Methyl-1-propionyl-1,2,3,4-tetrahydroquinolin-4-yl]amino}-N-{[1-(4-{[(2S,4R)-2-methyl-1-propionyl-1,2,3,4-tetrahydroquinolin-4-yl]amino}phenyl)-1H-1,2,3-triazol-4-yl]methyl}benzamide]	8.51
Cc1sc2c(c1C)C(c1ccc(C(=O)NCc3cn(-c4ccc(C5=N[C@@H](CC(=O)OC(C)(C)C)c6nnc(C)n6-c6sc(C)c(C)c65)cc4)nn3)cc1)=N[C@@H](CC(=O)OC(C)(C)C)c1nnc(C)n1-2 [Compound 3b, tert-Butyl 2-[(S)-4-(4-{4-[(4-{(S)-6-[2-(tert-butoxy)-2-oxoethyl]-2,3,9-trimethyl-6H-thieno[3,2-f][1,2,4]triazolo[4,3-a][1,4]diazepin-4-yl}benzamide)methyl]-1H-1,2,3-triazol-1-yl}phenyl)-2,3,9-trimethyl-6H-thieno[3,2-f][1,2,4]triazolo[4,3-a][1,4]diazepin-6-yl]acetate]	6.06
CCC(=O)N1c2ccccc2[C@H](Nc2ccc(NC(=O)CCCC(=O)NC3CCN(Cc4cc(O)cc(-c5c(C)noc5C)c4)CC3)cc2)C[C@@H]1C [Compound 12c, N^1-(1-(3-(3,5-Dimethylisoxazol-4-yl)-5-hydroxybenzyl)piperidin-4-yl)-N^5-(4-(((2S,4R)-2-methyl-1-propionyl-1,2,3,4-tetrahydroquinolin-4-yl)amino)phenyl)glutaramide]	7.6
CCC(=O)N1c2ccccc2[C@H](Nc2ccc(NC(=O)CCCC(=O)Nc3ccc(Cn4c(C(=O)OCCN(C)C)cc5c4CCCC5=O)cc3)cc2)C[C@@H]1C [Compound 15a, 2-(Dimethylamino)ethyl 1-(4-(5-((4-(((2S,4R)-2-methyl-1-propionyl-1,2,3,4-tetrahydroquinolin-4-yl)amino)phenyl)amino)-5-oxopentanamide)benzyl)-4-oxo-4,5,6,7-tetrahydro-1H-indole-2-carboxylate]	5.88
CCC(=O)N1c2ccccc2[C@H](Nc2ccc(-n3cc(CNC(=O)c4ccc(Cn5c(CC)cc6c5CCCC6=O)cc4)nn3)cc2)C[C@@H]1C [Compound 15f, 4-((2-Ethyl-4-oxo-4,5,6,7-tetrahydro-1H-indol-1-yl)methyl)-N-((1-(4-(((2S,4R)-2-methyl-1-propionyl-1,2,3,4-tetrahydroquinolin-4-yl)amino)phenyl)-1H-1,2,3-triazol-4-yl)methyl)benzamide]	5.99

Other lines, results leading:

BRET Ratio	SMILES
5.96	CCC(=O)N1c2ccccc2[C@H](Nc2ccc(C(=O)N3CCn4c(-c5ccc(N[C@@H]6C[C@H](C)N(C(=O)CC)c7ccccc76)cc5)cnc4C3)cc2)C[C@@H]1C [Compound 3e, 1-[(2S,4R)-2-Methyl-4-({4-[3-(4-{[(2S,4R)-2-methyl-1-propionyl-1,2,3,4-tetrahydroquinolin-4-yl]amino}phenyl)-5,6,7,8-tetrahydroimidazo[1,2-a]pyrazine-7-carbonyl]phenyl}amino)-3,4-dihydroquinolin-1(2H)-yl]propan-1-one]
7.07	CCC(=O)N1c2ccccc2[C@H](Nc2ccc(NC(=O)CCCC(=O)Nc3ccc(N[C@@H]4C[C@H](C)N(C(=O)CC)c5ccccc54)cc3)cc2)C[C@@H]1C [Compound 6k, N^1,N^5-Bis(4-(((2S,4R)-2-methyl-1-propionyl-1,2,3,4-tetrahydroquinolin-4-yl)amino)phenyl)glutaramide]
6.69	CCC(=O)N1c2ccccc2[C@H](Nc2ccc(NC(=O)CCCC(=O)NC3CCC(N[C@@H]4C[C@H](C)N(C(=O)CC)c5ccccc54)CC3)cc2)C[C@@H]1C (stereo partly drawn) [Compound 7o, N^1-((1R,4r)-4-(((2S,4R)-2-Methyl-1-propionyl-1,2,3,4-tetrahydroquinolin-4-yl)amino)cyclohexyl)-N^5-(4-(((2S,4R)-2-methyl-1-propionyl-1,2,3,4-tetrahydroquinolin-4-yl)amino)phenyl)glutaramide]
6.8	CCC(=O)N1c2ccccc2[C@H](Nc2ccc(NC(=O)N3CCN(C(=O)C4CCC(N[C@@H]5C[C@H](C)N(C(=O)CC)c6ccccc65)CC4)CC3)cc2)C[C@@H]1C (stereo partly drawn) [Compound 7p, 4-((1R,4r)-4-(((2S,4R)-2-Methyl-1-propionyl-1,2,3,4-tetrahydroquinolin-4-yl)amino)cyclohexane-1-carbonyl)-N-(4-(((2S,4R)-2-methyl-1-propionyl-1,2,3,4-tetrahydroquinolin-4-yl)amino)phenyl)piperazine-1-carboxamide]
7.27	CCC(=O)N1c2ccccc2[C@H](Nc2ccc(-n3cc(CCNC(=O)[C@H]4CC[C@H](N[C@@H]5C[C@H](C)N(C(=O)CC)c6ccccc65)CC4)nn3)cc2)C[C@@H]1C [Compound 8a, (1R,4r)-4-(((2S,4R)-2-Methyl-1-propionyl-1,2,3,4-tetrahydroquinolin-4-yl)amino)-N-(2-(1-(4-(((2S,4R)-2-methyl-1-propionyl-1,2,3,4-tetrahydroquinolin-4-yl)amino)phenyl)-1H-1,2,3-triazol-4-yl)ethyl)cyclohexane-1-carboxamide]
7.07	CCC(=O)N1c2ccccc2[C@H](Nc2ccc(NC(=O)CNC(=O)N[C@H]3CC[C@H](N[C@@H]4C[C@H](C)N(C(=O)CC)c5ccccc54)CC3)cc2)C[C@@H]1C [Compound 8j, 2-(3-((1R,4R)-4-(((2S,4R)-2-Methyl-1-propionyl-1,2,3,4-tetrahydroquinolin-4-yl)amino)cyclohexyl)ureido)-N-(4-(((2S,4R)-2-methyl-1-propionyl-1,2,3,4-tetrahydroquinolin-4-yl)amino)phenyl)acetamide]
